Test results from paper PMC4698665, “Functional Analysis of Esterase TCE2 Gene from Tetranychus cinnabarinus (Boisduval) involved in Acaricide Resistance” (Scientific Reports, 2016).

T1: recombinant TCE2 (Tetranychus cinnabarinus, UniProt B3TFG7)
T1 construct: pCold II (vector His tag), E. coli BL21(DE3), Ni-NTA purified; about 63 kDa
T1 sequence (B3TFG7 24-560): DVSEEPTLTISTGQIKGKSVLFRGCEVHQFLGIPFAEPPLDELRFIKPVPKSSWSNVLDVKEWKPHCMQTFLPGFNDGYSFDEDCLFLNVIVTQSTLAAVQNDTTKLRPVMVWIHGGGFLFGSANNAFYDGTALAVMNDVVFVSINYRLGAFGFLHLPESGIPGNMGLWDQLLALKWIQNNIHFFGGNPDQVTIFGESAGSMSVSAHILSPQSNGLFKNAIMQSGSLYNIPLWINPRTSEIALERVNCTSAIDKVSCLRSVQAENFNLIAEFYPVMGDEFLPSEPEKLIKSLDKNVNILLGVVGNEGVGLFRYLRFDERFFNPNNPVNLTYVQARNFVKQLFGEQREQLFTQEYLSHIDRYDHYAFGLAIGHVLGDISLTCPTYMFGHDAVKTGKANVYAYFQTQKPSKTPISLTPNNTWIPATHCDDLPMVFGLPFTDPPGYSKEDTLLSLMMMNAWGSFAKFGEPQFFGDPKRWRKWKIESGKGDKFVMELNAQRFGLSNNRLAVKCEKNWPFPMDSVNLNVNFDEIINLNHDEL

B1: recombinant TCE2 (Tetranychus cinnabarinus) (protein)
chain: T1 sequence (B3TFG7 24-560)
notes: pCold II (vector His tag), E. coli BL21(DE3), Ni-NTA purified; about 63 kDa

Tests used:
recombinant TCE2 [1] = biological target: T1, recombinant TCE2; experiment: Dixon plot, colorimetric esterase assay (Fast blue B); format: biochemical
recombinant TCE2 [2] = biological target: T1, recombinant TCE2; experiment: colorimetric esterase inhibition assay, microplate (Fast blue B, […] nm); format: biochemical
purified protein = substrate: CC(=O)Oc1cccc2ccccc12; experiment: purified protein; format: biochemical, Tetranychus cinnabarinus; conditions: 0.04 M PBS pH 7.4, 30 °C, 10 min

Molecule	Ki (recombinant TCE2 [1])	IC50 (recombinant TCE2 [2])	Km (purified protein)	Vmax (purified protein)
COCCOC(=O)C(C#N)(C(=O)c1ccccc1C(F)(F)F)c1ccc(C(C)(C)C)cc1 (stereo not drawn) [cyflumetofen]	182 ± 17.7 µM	129 ± 12.7 µM	–	–
CC1(C)C(C(=O)OC(C#N)c2cccc(Oc3ccccc3)c2)C1(C)C (stereo not drawn) [fenpropathrin]	356 ± 35.4 µM	235 ± 15.3 µM	–	–
B1	–	–	30.5 ± 5.9 µM	0.448 µmol/min/mg
